Test results taken from patent US6355799B1, “Substituted benzene compounds, process for their preparation, and herbicidal and defoliant compositions containing them” (ISK Americas Incorporated, priority 1997, dated 2002).

What was measured:
Format in all cases: in vivo
[1] = tested on: large crabgrass (Digitaria sanguinalis, DIGSA); experiment: Post-emerge test, greenhouse herbicide activity screening; conditions: post-emerge, 14 days after application, rating scale 0-100
Summary of the method: (§1)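 Compounds in acetone were track-sprayed at 15–1000 g ai/ha: pre-emergence onto soil sown the previous day, then top-watered to incorporate and later bottom-watered; post-emergence onto 2–3 leaf plants with 0.25% v/v surfactant, bottom-watered only. Ratings on a 0–100 phytotoxicity scale were taken at day 14.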

[2] = tested on: sicklepod (Cassia obtusifolia, CASOB); experiment: as above; conditions: post-emerge, 14 days after application, rating scale 0-100
Summary of the method: as §1

[3] = tested on: lambsquarters (Chenopodium album, CHEAL); experiment: as above; conditions: post-emerge, 14 days after application, rating scale 0-100
Summary of the method: as §1

[4] = tested on: green foxtail (Setaria viridis, SETVI); experiment: as above; conditions: post-emerge, 14 days after application, rating scale 0-100
Summary of the method: as §1

[5] = tested on: ivyleaf morningglory (Ipomoea hederacea, IPOHE); experiment: as above; conditions: post-emerge, 14 days after application, rating scale 0-100
Summary of the method: as §1

[6] = tested on: johnsongrass (Sorghum halepense, SORHA); experiment: as above; conditions: post-emerge, 14 days after application, rating scale 0-100
Summary of the method: as §1

[7] = tested on: redroot pigweed (Amaranthus retroflexus, AMARE); experiment: as above; conditions: post-emerge, 14 days after application
Summary of the method: as §1

[8] = tested on: velvetleaf (Abutilon theophrasti, ABUTH); experiment: as above; conditions: post-emerge, 14 days after application, rating scale 0-100
Summary of the method: as §1

[9] = tested on: barnyardgrass (Echinochloa crus-galli, ECHCG); experiment: as above; conditions: post-emerge, 14 days after application, rating scale 0-100
Summary of the method: as §1

[10] = tested on: large crabgrass (Digitaria sanguinalis, DIGSA); experiment: Pre-emerge test, greenhouse herbicide activity screening; conditions: pre-emerge, 14 days after application, rating scale 0-100
Summary of the method: (§2)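 Plants grown in 10 cm pots of sandy loam mix received acetone-dissolved compounds through a moving flat-fan nozzle. Doses ranged from 15 to 1000 g ai/ha. Pre-emerge pots were seeded one day earlier, post-emerge pots 8–21 days earlier. Fourteen days on, each pot was graded 0–100 for damage.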

[11] = tested on: sicklepod (Cassia obtusifolia, CASOB); experiment: as above; conditions: pre-emerge, 14 days after application, rating scale 0-100
Summary of the method: as §2

[12] = tested on: lambsquarters (Chenopodium album, CHEAL); experiment: as above; conditions: pre-emerge, 14 days after application, rating scale 0-100
Summary of the method: as §2

[13] = tested on: green foxtail (Setaria viridis, SETVI); experiment: as above; conditions: pre-emerge, 14 days after application, rating scale 0-100
Summary of the method: as §2

[14] = tested on: ivyleaf morningglory (Ipomoea hederacea, IPOHE); experiment: as above; conditions: pre-emerge, 14 days after application, rating scale 0-100
Summary of the method: as §2

[15] = tested on: johnsongrass (Sorghum halepense, SORHA); experiment: as above; conditions: pre-emerge, 14 days after application, rating scale 0-100
Summary of the method: as §2

[16] = tested on: velvetleaf (Abutilon theophrasti, ABUTH); experiment: as above; conditions: pre-emerge, 14 days after application, rating scale 0-100
Summary of the method: as §2

[17] = tested on: barnyardgrass (Echinochloa crus-galli, ECHCG); experiment: as above; conditions: pre-emerge, 14 days after application, rating scale 0-100
Summary of the method: as §2

[18] = tested on: upland rice (Oryza sp., var. Tebonnet, RICE); experiment: Pre-emerge test, crop safety; conditions: pre-emerge, 14 days after application, rating scale 0-100
Summary of the method: (§3)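 Applied at 15–1000 g ai/ha from acetone in 187 l/ha spray volume. Post-emergence applications included 0.25% v/v non-ionic surfactant and reached plants sown 8–21 days before. Pre-emergence applications were incorporated by surface watering. Efficacy or crop damage was rated on a 0–100 scale after 14 days.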

[19] = tested on: field corn (Zea mays L., var. Dekalb 535, CORN); experiment: Pre-emerge test, crop safety; conditions: pre-emerge, 14 days after application, rating scale 0-100
Summary of the method: as §3

[20] = tested on: redroot pigweed (Amaranthus retroflexus, AMARE); experiment: Pre-emerge test, greenhouse herbicide activity screening; conditions: pre-emerge, 14 days after application, rating scale 0-100
Summary of the method: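 Sandy loam pots; pre-emerge: sown 1 d pre-spray, surface-watered after, then bottom-watered. Post-emerge: sown 8–21 d before, 2–3 leaf stage, + 0.25% v/v NIS, bottom-watered. Acetone, 187 l/ha track spray, 15–1000 g ai/ha. 0–100 injury score, day 14.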

[21] = tested on: upland rice (Oryza sp., var. Tebonnet, RICE); experiment: Post-emerge test, crop safety; conditions: post-emerge, 14 days after application, rating scale 0-100
Summary of the method: (§4)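 Each test used a mechanized track sprayer delivering 187 l/ha of acetone solution at 15–1000 g ai/ha. Post-emerge foliage at 2–3 leaves was treated with added 0.25% v/v non-ionic surfactant and bottom-watered only. Injury was assessed on day 14, where 100 means total kill.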

[22] = tested on: field corn (Zea mays L., var. Dekalb 535, CORN); experiment: Post-emerge test, crop safety; conditions: post-emerge, 14 days after application, rating scale 0-100
Summary of the method: as §4

[23] = 63 g ai/ha, rating scale 0-100 (0 no damage, 100 complete death)
[24] = 250 g ai/ha, rating scale 0-100

CCOC(=O)C(Cl)Cc1cc(Cl)cc(F)c1-n1c(=O)cc(C(F)(F)F)n(C)c1=O (stereo not shown) [14-60]
10: Post-emerge Herbicidal Activity DIGSA (phytotoxicity rating) ([1]; 63 g ai/ha) | phytotoxicity rating SETVI ([13]; 63 g ai/ha) | phytotoxicity rating SORHA ([15]; 250 g ai/ha) | Post-emerge Herbicidal Activity RICE (crop damage rating) ([21]; 63 g ai/ha)
60: Post-emerge Herbicidal Activity DIGSA (phytotoxicity rating) ([1]; 250 g ai/ha) | phytotoxicity rating SETVI ([13]; 250 g ai/ha) | Post-emerge Herbicidal Activity CORN (crop damage rating) ([22]; 250 g ai/ha)
50: Post-emerge Herbicidal Activity SORHA (phytotoxicity rating) ([6]; 250 g ai/ha) | Post-emerge Herbicidal Activity ECHCG (phytotoxicity rating) ([9]; 63 g ai/ha)
99: Post-emerge Herbicidal Activity CHEAL (phytotoxicity rating) ([3]; 63 g ai/ha)
30: Post-emerge Herbicidal Activity SETVI (phytotoxicity rating) ([4]; 250 g ai/ha) | phytotoxicity rating DIGSA ([10]; 250 g ai/ha)
40: Post-emerge Herbicidal Activity CASOB (phytotoxicity rating) ([2]; 63 g ai/ha)
70: Post-emerge Herbicidal Activity CASOB (phytotoxicity rating) ([2]; 250 g ai/ha) | Post-emerge Herbicidal Activity AMARE (phytotoxicity rating) [7, 23]
90: phytotoxicity rating IPOHE ([14]; 63 g ai/ha)
20: Post-emerge Herbicidal Activity SETVI (phytotoxicity rating) ([4]; 63 g ai/ha) | Post-emerge Herbicidal Activity SORHA (phytotoxicity rating) ([6]; 63 g ai/ha) | phytotoxicity rating ECHCG ([17]; 250 g ai/ha) | phytotoxicity rating RICE ([18]; 250 g ai/ha) | Post-emerge Herbicidal Activity RICE (crop damage rating) ([21]; 250 g ai/ha)
75: Post-emerge Herbicidal Activity ECHCG (phytotoxicity rating) ([9]; 250 g ai/ha)
0: phytotoxicity rating DIGSA ([10]; 63 g ai/ha) | phytotoxicity rating CASOB ([11]; 63 g ai/ha) | phytotoxicity rating CASOB ([11]; 250 g ai/ha) | phytotoxicity rating SORHA ([15]; 63 g ai/ha) | phytotoxicity rating ECHCG ([17]; 63 g ai/ha) | phytotoxicity rating RICE ([18]; 63 g ai/ha) | phytotoxicity rating CORN ([19]; 63 g ai/ha) | phytotoxicity rating CORN ([19]; 250 g ai/ha) | Post-emerge Herbicidal Activity CORN (crop damage rating) ([22]; 63 g ai/ha)
100: Post-emerge Herbicidal Activity CHEAL (phytotoxicity rating) ([3]; 250 g ai/ha) | Post-emerge Herbicidal Activity IPOHE (phytotoxicity rating) ([5]; 63 g ai/ha) | Post-emerge Herbicidal Activity IPOHE (phytotoxicity rating) ([5]; 250 g ai/ha) | Post-emerge Herbicidal Activity AMARE (phytotoxicity rating) [7, 24] | Post-emerge Herbicidal Activity ABUTH (phytotoxicity rating) ([8]; 63 g ai/ha) | Post-emerge Herbicidal Activity ABUTH (phytotoxicity rating) ([8]; 250 g ai/ha) | phytotoxicity rating CHEAL ([12]; 63 g ai/ha) | phytotoxicity rating CHEAL ([12]; 250 g ai/ha) | phytotoxicity rating IPOHE ([14]; 250 g ai/ha) | phytotoxicity rating ABUTH ([16]; 63 g ai/ha) | phytotoxicity rating ABUTH ([16]; 250 g ai/ha) | phytotoxicity rating AMARE ([20]; 63 g ai/ha) | phytotoxicity rating AMARE ([20]; 250 g ai/ha)

COc1c(Cl)cc(F)c(-n2c(=O)cc(C(F)(F)F)n(C)c2=O)c1NN=C(C)C [15-12]
100: Post-emerge Herbicidal Activity DIGSA (phytotoxicity rating) ([1]; 250 g ai/ha) | Post-emerge Herbicidal Activity CASOB (phytotoxicity rating) ([2]; 250 g ai/ha) | Post-emerge Herbicidal Activity CHEAL (phytotoxicity rating) ([3]; 63 g ai/ha) | Post-emerge Herbicidal Activity CHEAL (phytotoxicity rating) ([3]; 250 g ai/ha) | Post-emerge Herbicidal Activity SETVI (phytotoxicity rating) ([4]; 250 g ai/ha) | Post-emerge Herbicidal Activity IPOHE (phytotoxicity rating) ([5]; 63 g ai/ha) | Post-emerge Herbicidal Activity IPOHE (phytotoxicity rating) ([5]; 250 g ai/ha) | Post-emerge Herbicidal Activity AMARE (phytotoxicity rating) [7, 24] | Post-emerge Herbicidal Activity ABUTH (phytotoxicity rating) ([8]; 63 g ai/ha) | Post-emerge Herbicidal Activity ABUTH (phytotoxicity rating) ([8]; 250 g ai/ha) | Post-emerge Herbicidal Activity ECHCG (phytotoxicity rating) ([9]; 250 g ai/ha) | phytotoxicity rating DIGSA ([10]; 63 g ai/ha) | phytotoxicity rating DIGSA ([10]; 250 g ai/ha) | phytotoxicity rating CASOB ([11]; 63 g ai/ha) | phytotoxicity rating CASOB ([11]; 250 g ai/ha) | phytotoxicity rating CHEAL ([12]; 63 g ai/ha) | phytotoxicity rating CHEAL ([12]; 250 g ai/ha) | phytotoxicity rating SETVI ([13]; 63 g ai/ha) | phytotoxicity rating SETVI ([13]; 250 g ai/ha) | phytotoxicity rating IPOHE ([14]; 63 g ai/ha) | phytotoxicity rating IPOHE ([14]; 250 g ai/ha) | phytotoxicity rating SORHA ([15]; 63 g ai/ha) | phytotoxicity rating SORHA ([15]; 250 g ai/ha) | phytotoxicity rating ABUTH ([16]; 63 g ai/ha) | phytotoxicity rating ABUTH ([16]; 250 g ai/ha) | phytotoxicity rating ECHCG ([17]; 63 g ai/ha) | phytotoxicity rating ECHCG ([17]; 250 g ai/ha) | phytotoxicity rating RICE ([18]; 250 g ai/ha) | phytotoxicity rating CORN ([19]; 63 g ai/ha) | phytotoxicity rating CORN ([19]; 250 g ai/ha) | phytotoxicity rating AMARE ([20]; 63 g ai/ha) | phytotoxicity rating AMARE ([20]; 250 g ai/ha)
90: Post-emerge Herbicidal Activity CASOB (phytotoxicity rating) ([2]; 63 g ai/ha)
99: Post-emerge Herbicidal Activity SORHA (phytotoxicity rating) ([6]; 250 g ai/ha) | phytotoxicity rating RICE ([18]; 63 g ai/ha) | Post-emerge Herbicidal Activity RICE (crop damage rating) ([21]; 250 g ai/ha)
70: Post-emerge Herbicidal Activity SETVI (phytotoxicity rating) ([4]; 63 g ai/ha) | Post-emerge Herbicidal Activity ECHCG (phytotoxicity rating) ([9]; 63 g ai/ha)
80: Post-emerge Herbicidal Activity SORHA (phytotoxicity rating) ([6]; 63 g ai/ha) | Post-emerge Herbicidal Activity RICE (crop damage rating) ([21]; 63 g ai/ha) | Post-emerge Herbicidal Activity CORN (crop damage rating) ([22]; 63 g ai/ha)
95: Post-emerge Herbicidal Activity DIGSA (phytotoxicity rating) ([1]; 63 g ai/ha) | Post-emerge Herbicidal Activity AMARE (phytotoxicity rating) [7, 23] | Post-emerge Herbicidal Activity CORN (crop damage rating) ([22]; 250 g ai/ha)
